For data set [1], the system named is HK-2 (human kidney proximal tubular cell). In words: XTT cell proliferation assay, protection against cisplatin cytotoxicity, HK-2. The data set is classed as cell-based. Background: Tetrazolium dyes change colour on reduction, which living cells bring about.
Description: HK-2 cells treated with culture medium served as a control. The respective survival rate was measured by cell proliferation kit XTT. All data are in triplicates.
(§1) To evaluate the in vitro protection effect of test bismuth(III) complexes against cisplatin stress, two nontumorigenic normal human cell lines, HK-2 (human kidney proximal tubular cell) and MIHA (human hepatocyte cell) are incorporated herein for cell proliferation kit II XTT assay.
(§2) The XTT assay was carried out according to the manufacturer's instruction (Roche Diagnostics, USA). Typically, 1-2×10^4 cells per well were grown in flat-bottom 96-well plates at 37° C. for an overnight under a humidified atmosphere of 5% CO2. Cells pellets were washed with PBS and treated with bismuth(III) complexes at various concentrations (1-100 μM) for 2 hours prior to the exposure to cisplatin (10 μM and 100 μM for HK-2 and MIHA cell line, respectively) for 2 days. Cells grown under culture medium alone were used as a negative control. After a fixed incubation time, 50 μl of the XTT labeling mixture was added to each well and the cells were incubated for 2 hours. The formation of formazan dyes, produced only by metabolic active cells, was detected spectrophotometrically at 490 nm.
The test system of data set [2] is MIHA (human hepatocyte cell). In words: XTT cell proliferation assay, protection against cisplatin cytotoxicity, MIHA. Format: cell-based.
Description: MIHA cells treated with culture medium served as a control. The respective survival rate was measured by cell proliferation kit XTT. All data are in triplicates.
as §1, §2
The test system of a further data set is female BALB/c mice. In words: Survival of cisplatin-treated mice (cisplatin induced nephrotoxicity). As to conditions: 50 mg/kg orally Day -2, -1, 0, 2, 4; cisplatin 30 mg/kg i.p. Day 0; n=8. Format: in vivo. The method, then:
FIG. 5 Provides survival curves of cisplatin-treated mice with pretreatment of Bi-L1, Bi-L12 and BicitZ, respectively, showing the protective role of bimusth(III) complexes on cisplatin induced nephrotoxicity. All bismuth complexes (50 mg/kg) were administered orally on Day −2, Day −1, Day 0, Day 2 and Day 4. Cisplatin (30 mg/kg) was I.P. injected on Day 0. […] (Log-rank (Mantel-Cox) test, ***P=0.0004)

For data set [3] the following is noted: highly dependent on pH and ionic strength.
Data set [4] relates to SKNLP neuroblastoma cells. In words: Cisplatin anti-tumor activity in SKNLP neuroblastoma tumor-bearing mice.
Description: 0.2 Million SKNLP neuroblastoma cells transfected with luminescent plasmid were inoculated into the adrenal gland of SCID beige mice. […] Cisplatin (7.5 mg/kg) was i.p. injected at Day 0, Day 7 and Day 14. Tumor growth was monitored by luminescent of the transfected tumor cells.
SKNLP neuroblastoma cells (˜2×10^5 cells) were transfected with luminescent plasmid were inoculated into the adrenal gland of BALB/c nude mice. […] Cisplatin (7.5 mg/kg) was i.p. injected on Day 0, and Day 7. Tumor growth was monitored by luminescent of the transfected tumor cells.
To evaluate whether Bi(III) complexes affect cisplatin's in vivo anti-tumor activity, SKNLP neuroblastoma cells transfected with luminescent plasmid were implanted into mice.
Another data set concerns testicular cancer. Conditions: cited from earlier work.

As to “bismuth(III) zinc(II) citrate complex [BicitZ]”, the “increase of cell viability when co-treated with cisplatin” value is reported as 16.7% in data set [1] (bismuth(III) complex 1-100 μM 2 hours prior to cisplatin 10 μM for 2 days, XTT) and 28.5% in data set [2] (bismuth(III) complex 1-100 μM 2 hours prior to cisplatin 100 μM for 2 days, XTT). In addition, the “survival rate of cisplatin-treated mice (Kaplan-Meier)” value in the data set with female BALB/c mice is listed as “higher survival rate”. The “solubility of the complex in water” value in data set [3] is “over 100 mM”. In addition, the “effect on cisplatin's anti-cancer activity in tumor engrafted mice” value in data set [4] (SCID beige mice, oral 50 mg/Kg Day -1, 0 and every two days, cisplatin 7.5 mg/kg Day 0, 7, 14) was “negligible effects”. Also, the “interference on cisplatin's chemotherapeutic effect” value in data set [4] (pretreatment at 100 mg/kg, cisplatin 7.5 mg/Kg, SCID beige tumor-bearing mice) is recorded as “no interference”. Also, the “SKNLP tumor cells metastases in lung and liver (histology)” value in data set [4] (same experiments as FIG. 7 and FIG. 8, vs control and cisplatin alone) is given as “delays SKNLP tumor cells metastases”.
Take `N.N.[Cl][Pt][Cl]` [cisplatin, cis-[PtCl2(NH3)2], reference compound]: the “cells survived after exposure to cisplatin only” value in data set [1] (cisplatin 10 μM, 2 days) is reported as “Less than 40%”; in data set [2] (cisplatin 100 μM, 2 days), “Less than 40%”. Further, in the data set on testicular cancer, the overall cure rate result is on record as “over 90%”.

The values are drawn from US11554138B2, “Bismuth(III) complexes as adjuvants in the treatment of cancer using platinum-based chemotherapy” (THE UNIVERSITY OF HONG KONG, priority 2015, dated 2023).
